# Results: PubChem BioAssay AID1963839 (Molecular Pharmacology Branch, DTP, NCI, 2024)
# System: 817829-284-R-J1-PDC complex spheroid viability
# Assay: Anticancer human tumor 817829-284-R-J1-PDC patient-derived colon adenocarcinoma cell line growth inhibition [POLQ]
# Details: for IC50: curve of first compound; for viability, T/C: stronger effect = lower value
# Outline: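 Growth inhibition in 3D: complex spheroids (tumor PDC, HUVEC, MSC) treated with POLQ inhibitor combinations; where Cmax unknown, highest tested concentration 10 microM, except SN-38 at 1 microM.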
# [1] = second compound 0.0316 µM, first compound 0.0316 µM
# [2] = second compound 0.0316 µM, first compound 0.1 µM
# [3] = second compound 0.0316 µM, first compound 0.316 µM
# [4] = second compound 0.0316 µM, first compound 1 µM
# [5] = second compound 0.1 µM, first compound 0.0316 µM
# [6] = second compound 0.1 µM, first compound 0.1 µM
# [7] = second compound 0.1 µM, first compound 0.316 µM
# [8] = second compound 0.1 µM, first compound 1 µM
# [9] = second compound 0.316 µM, first compound 0.0316 µM
# [10] = second compound 0.316 µM, first compound 0.1 µM
# [11] = second compound 0.316 µM, first compound 0.316 µM
# [12] = second compound 0.316 µM, first compound 1 µM
# [13] = second compound 1 µM, first compound 0.0316 µM
# [14] = second compound 1 µM, first compound 0.1 µM
# [15] = second compound 1 µM, first compound 0.316 µM
# [16] = second compound 1 µM, first compound 1 µM
# [17] = second compound 3.16 µM, first compound 0.0316 µM
# [18] = second compound 3.16 µM, first compound 0.1 µM
# [19] = second compound 3.16 µM, first compound 0.316 µM
# [20] = second compound 3.16 µM, first compound 1 µM
# [21] = second compound 10 µM, first compound 0.0316 µM
# [22] = second compound 10 µM, first compound 0.1 µM
# [23] = second compound 10 µM, first compound 0.316 µM
# [24] = second compound 10 µM, first compound 1 µM
# [25] = second compound 0.0316 µM, first compound 3.16 µM
# [26] = second compound 0.0316 µM, first compound 10 µM
# [27] = second compound 0.1 µM, first compound 3.16 µM
# [28] = second compound 0.1 µM, first compound 10 µM
# [29] = second compound 0.316 µM, first compound 3.16 µM
# [30] = second compound 0.316 µM, first compound 10 µM
# [31] = second compound 1 µM, first compound 3.16 µM
# [32] = second compound 1 µM, first compound 10 µM
# [33] = second compound 3.16 µM, first compound 3.16 µM
# [34] = second compound 3.16 µM, first compound 10 µM
# [35] = second compound 10 µM, first compound 3.16 µM
# [36] = second compound 10 µM, first compound 10 µM
# 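Also: spheroids exposed to compounds for 7 days.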
# 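For viability, T/C in this document: 100% = DMSO vehicle-treated spheroids.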
compound,measurement,setting,value
C=CCn1c(=O)c2cnc(Nc3ccc(N4CCN(C)CC4)cc3)nc2n1-c1cccc(C(C)(C)O)n1 + COC1C(OC(N)=O)C(O)C(Oc2ccc3c(O)c(NC(=O)c4ccc(O)c(CC=C(C)C)c4)c(=O)oc3c2C)OC1(C)C,IC50,second compound 0.0316 µM,161 nM
same,IC50,second compound 0.1 µM,144 nM
same,IC50,second compound 0.316 µM,176 nM
same,IC50,second compound 1 µM,190 nM
same,IC50,second compound 3.16 µM,176 nM
same,IC50,second compound 10 µM,133 nM
same,"viability, T/C","second compound 0.0316 µM, first compound 0.00316 µM",93%
same,"viability, T/C","second compound 0.0316 µM, first compound 0.01 µM",74.8%
same,"viability, T/C",[1],91.3%
same,"viability, T/C",[2],58%
same,"viability, T/C",[3],33.6%
same,"viability, T/C",[4],7.07%
same,"viability, T/C","second compound 0.1 µM, first compound 0.00316 µM",107%
same,"viability, T/C","second compound 0.1 µM, first compound 0.01 µM",91.4%
same,"viability, T/C",[5],87.2%
same,"viability, T/C",[6],55.5%
same,"viability, T/C",[7],32.3%
same,"viability, T/C",[8],6.47%
same,"viability, T/C","second compound 0.316 µM, first compound 0.00316 µM",100%
same,"viability, T/C","second compound 0.316 µM, first compound 0.01 µM",96.8%
same,"viability, T/C",[9],96.6%
same,"viability, T/C",[10],72%
same,"viability, T/C",[11],26.7%
same,"viability, T/C",[12],6%
same,"viability, T/C","second compound 1 µM, first compound 0.00316 µM",82.8%
same,"viability, T/C","second compound 1 µM, first compound 0.01 µM",95.9%
same,"viability, T/C",[13],110%
same,"viability, T/C",[14],70.6%
same,"viability, T/C",[15],32.2%
same,"viability, T/C",[16],7.21%
same,"viability, T/C","second compound 3.16 µM, first compound 0.00316 µM",109%
same,"viability, T/C","second compound 3.16 µM, first compound 0.01 µM",107%
same,"viability, T/C",[17],83%
same,"viability, T/C",[18],69.7%
same,"viability, T/C",[19],32.2%
same,"viability, T/C",[20],7.29%
same,"viability, T/C","second compound 10 µM, first compound 0.00316 µM",67.5%
same,"viability, T/C","second compound 10 µM, first compound 0.01 µM",96.1%
same,"viability, T/C",[21],69.7%
same,"viability, T/C",[22],55.2%
same,"viability, T/C",[23],30.8%
same,"viability, T/C",[24],8.11%
O=c1[nH]cc(F)c(=O)[nH]1 + Nc1ccc(C#CCN(C(=O)Cc2ncc(C(F)(F)F)cc2C(F)(F)F)c2ccc(F)cc2)nn1,IC50,second compound 0.0316 µM,1250 nM
same,IC50,second compound 0.1 µM,1770 nM
same,IC50,second compound 0.316 µM,1710 nM
same,IC50,second compound 1 µM,1600 nM
same,IC50,second compound 3.16 µM,1370 nM
same,IC50,second compound 10 µM,1300 nM
same,"viability, T/C",[1],99.6%
same,"viability, T/C",[2],110%
same,"viability, T/C",[3],95.6%
same,"viability, T/C",[4],54.1%
same,"viability, T/C",[25],34%
same,"viability, T/C",[26],28.1%
same,"viability, T/C",[5],96.4%
same,"viability, T/C",[6],102%
same,"viability, T/C",[7],84.4%
same,"viability, T/C",[8],64.4%
same,"viability, T/C",[27],35.8%
same,"viability, T/C",[28],27%
same,"viability, T/C",[9],100%
same,"viability, T/C",[10],98.8%
same,"viability, T/C",[11],93.3%
same,"viability, T/C",[12],63.9%
same,"viability, T/C",[29],34%
same,"viability, T/C",[30],23.7%
same,"viability, T/C",[13],108%
same,"viability, T/C",[14],89.3%
same,"viability, T/C",[15],93.5%
same,"viability, T/C",[16],60.5%
same,"viability, T/C",[31],33.7%
same,"viability, T/C",[32],26.1%
same,"viability, T/C",[17],86.2%
same,"viability, T/C",[18],108%
same,"viability, T/C",[19],77.2%
same,"viability, T/C",[20],55.8%
same,"viability, T/C",[33],38.1%
same,"viability, T/C",[34],27.4%
same,"viability, T/C",[21],92.1%
same,"viability, T/C",[22],92.8%
same,"viability, T/C",[23],85.5%
same,"viability, T/C",[24],54.8%
same,"viability, T/C",[35],33%
same,"viability, T/C",[36],26.7%
C=CC(=O)N1CCN(c2nc(=O)n(-c3c(C)ccnc3C(C)C)c3nc(-c4c(O)cccc4F)c(F)cc23)C(C)C1 (stereo unspecified) + Nc1ccc(C#CCN(C(=O)Cc2ncc(C(F)(F)F)cc2C(F)(F)F)c2ccc(F)cc2)nn1,IC50,second compound 0.0316 µM,> 10000 nM
same,IC50,second compound 0.1 µM,> 10000 nM
same,IC50,second compound 0.316 µM,> 10000 nM
same,IC50,second compound 1 µM,> 10000 nM
same,IC50,second compound 3.16 µM,9670 nM
same,IC50,second compound 10 µM,> 10000 nM
same,"viability, T/C",[1],77.4%
same,"viability, T/C",[2],103%
same,"viability, T/C",[3],97.2%
same,"viability, T/C",[4],93.5%
same,"viability, T/C",[25],91.7%
same,"viability, T/C",[26],51.3%
same,"viability, T/C",[5],95%
same,"viability, T/C",[6],110%
same,"viability, T/C",[7],101%
same,"viability, T/C",[8],99.8%
same,"viability, T/C",[27],84.2%
same,"viability, T/C",[28],60.5%
same,"viability, T/C",[9],104%
same,"viability, T/C",[10],91.3%
same,"viability, T/C",[11],96.6%
same,"viability, T/C",[12],98%
same,"viability, T/C",[29],93.5%
same,"viability, T/C",[30],61.6%
same,"viability, T/C",[13],102%
same,"viability, T/C",[14],119%
same,"viability, T/C",[15],112%
same,"viability, T/C",[16],97.8%
same,"viability, T/C",[31],94.5%
same,"viability, T/C",[32],52.9%
same,"viability, T/C",[17],96%
same,"viability, T/C",[18],89%
same,"viability, T/C",[19],102%
same,"viability, T/C",[20],90.8%
same,"viability, T/C",[33],76.2%
same,"viability, T/C",[34],49.2%
same,"viability, T/C",[21],114%
same,"viability, T/C",[22],84.1%
same,"viability, T/C",[23],90.6%
same,"viability, T/C",[24],90%
same,"viability, T/C",[35],79.8%
same,"viability, T/C",[36],51%
